The text below walks through data of US9551722B2, “Amyloid binding agents” (The Regents of the University of California, priority 2009, dated 2017).

pKd: −log10 of the molar value.

In data set [1] the target is T1, pre-aggregated Aβ(1-42) peptide (Homo sapiens, UniProt P05067).
T1 construct: preaggregated Aβ(1-42) peptides
The data set can be described thus: Apparent binding constant (Kd) by double reciprocal fluorescence plot. The note with it: compound 10, 5, 2.5, 1.25 μM; 5.0 μM pre-aggregated Aβ(1-42); PBS pH 7.4. On the procedure:
We also measured the apparent binding constants (Kd) of the compounds (in concentrations of 10, 5, 2.5 and 1.25 μM) to 5.0 μM pre-aggregated Aβ(1-42) peptide. The Kd can be measured from the double reciprocal of the fluorescent maximum and the concentration of the compound. See H. LeVine III, Protein Sci. 1993, 2:404-410. […] [22,] See LeVine, Id.; Lockhart, L. Ye, D. B. Judd, A. T. Merritt, P. N. Lowe, J. L. Morgenstern, G. Z. Hong, A. D. Gee, J. Brown, J. Biol. Chem. 2005, 280:7677-7684; M. Biancalana, K. Makabe, A. Koide, S. Koide, J. Mol. Biol. 2008, 383:205-213; M. Biancalana, K. Makabe, A. Koide, S. Koide, J. Mol. Biol. 2009, 385:1052-1063. The Kd corresponds to the −1/(x-intercept) of the linear regression.
Pre-aggregated Aβ(1-42) (5 μM final concentration) was mixed with various concentrations of compounds described herein (10, 5, 2.5, 1.25 μM) in PBS buffer (pH 7.4) and their fluorescence was measured. The negative inverse of the x-intercept of the linear regression, that was drawn between the double reciprocal of the fluorescence intensity maximum and concentration of the compound, represents the compound binding constant (Kd) to Aβ(1-42).
In order to quantify the dissociation constants (Kd's) for the binding of fluorescent compounds with aggregated β-amyloid peptides, we used the method described by LeVine (see H. LeVine III, Protein Sci. 1993, 2, 404-410). This method is similar to the method described by Benesi-Hildebran (see C. Yang, L. Liu, T. W. Mu, Q. X. Guo, Anal. Sci. 2000, 16, 537-539). Here, the fluorescence of the compound was measured with and without the addition of the aggregated peptides in solution. The relative fluorescence enhancement of the compound upon binding to aggregated β-amyloid peptides was determined by taking the difference between F (fluorescence after the addition of aggregated peptides) and F (fluorescence before the addition of aggregated peptides).
In order to estimate the binding constant (Kd) for the compound-Aβ complexes from the fluorescence studies, we made the following assumptions: • 1. All compounds are completely in solution and free of any significant competing binding process such as self-aggregation. • 2. The concentration of unbound compounds can be approximated as close to the total concentration of the compounds. • 3. The binding sites in the aggregated Aβ peptides are not completely occupied at the concentration of Aβ-binding compounds used for the fluorescence studies (i.e., the experiments are carried out under non-saturated binding conditions).
FIG. 2 and FIG. 6 provide double reciprocal plots of the measured fluorescence versus total concentration of compound [GO]. Assuming that [G] can be approximated as close to [GO] (assumption 2), we can obtain estimates for the Kd's of the compound-Aβ complexes from the x-intercept of the linear fits of the data for each compound.

The target in data set [2] is T2, interaction of the aggregated Aβ peptide with a monoclonal anti-Aβ IgG (Homo sapiens, UniProt P05067).
T2 construct: Aggregated Aβ peptides were generated from synthetic Aβ(1-42) peptides
Kind of data set: Semi-quantitative ELISA: inhibition of IgG-Aβ fibril interactions. Type of data set: binding. The following applies: anti-Aβ IgG clone 6E10. On the procedure:
The association of the synthesized compounds with aggregated Aβ peptides was tested using a semi-quantitative ELISA based assay developed by Yang and co-workers. See P. Inbar, J. Yang, Bioorg. Med. Chem. Lett. 2006, 16:1076-1079; P. Inbar, C. Q. Li, S. A. Takayama, M. R. Bautista, J. Yang, ChemBioChem 2006, 7:1563-1566; P. Inbar, M. R. Bautista, S. A. Takayama, J. Yang, Anal. Chem. 2008, 80:3502-3506. The assay is based on screening for molecules that inhibit the interaction of the aggregated Aβ peptide with a monoclonal anti-Aβ IgG raised against residues 1-17 of Aβ. Table 4 provides the concentrations of the compounds corresponding to 50% inhibition (IC50) of the IgG-Aβ interactions as well as the maximal percentage of the IgG's inhibited from binding to the fibrils. […] The maximum inhibition, a measure of the extent of surface coating of the aggregated peptide by the compounds, was determined to be between 40-98% (Table 4). See P. Inbar, J. Yang, Bioorg. Med. Chem. Lett. 2006, 16:1076-1079; P. Inbar, C. Q. Li, S. A. Takayama, M. R. Bautista, J. Yang, ChemBioChem 2006, 7:1563-1566; P. Inbar, M. R. Bautista, S. A. Takayama, J. Yang, Anal. Chem. 2008, 80:3502-3506. […] Specifically, while the maximum inhibition is between 81-98% for the phenyl compounds, it decreases to 58% for the longer naphthalene compound 11 and to 40% for the more conjugated stilbene 19.
Aggregated Aβ peptides were generated from synthetic Aβ(1-42) peptides by dissolving 30 μg of peptide in 90 μL of nanopure water (pH 5-6) and incubating at 37° C. for ≧72 h without agitation. Each well of a 96-well plate (well volume 0.4 mL; clear, flat bottom polypropylene) was coated for 3 h at 25° C. with 50 μL of 1.3 μM solution of Aβ peptides in phosphate-buffered saline (PBS, 10 mM NaH2PO4/Na2HPO4, 138 mM NaCl, 2.7 mM KCl, pH 7.4). After removal of the excess sample, 50 μL solutions of compounds in PBS buffer (various concentrations were obtained by diluting a stock solution with PBS buffer) were incubated in the wells for 12 h. […] The excess solutions were then removed and all wells were blocked for 30 min by adding 300 μL of a 1% (w/v) solution of bovine serum albumin in PBS buffer (BSA/PBS). On occasion, an additional blocking step was performed prior to incubation with solutions of small molecules. The blocking solution was discarded and the wells were washed once with 300 μL of PBS buffer. Wells were incubated for 1 h with 50 μL of a 1.1 nM solution (in 1% BSA/PBS, dilution 1:6000) of anti-Aβ IgG (clone 6E10, monoclonal, mouse), followed by removal of the solution. The wells were washed twice with 300 μL of PBS buffer and incubated for 60 min with 50 μL of the secondary IgG (anti-mouse IgG H+L, polyclonal, rabbit) conjugated with alkaline phosphatase (6.8 nM in 1% BSA/PBS, dilution 1:1000). The solution was discarded, and the wells were washed twice with 300 μL PBS buffer. Bound secondary IgGs were detected by the addition of 50 μL of a p-nitrophenyl phosphate solution (2.7 mM, in 100 mM diethanol amine/0.5 mM magnesium chloride, pH 9.8). Absorbance intensities were determined at 405 nm using a UV-vis spectroscopic plate reader (Sprectramax 190, Molecular Devices, Sunnyvale, Calif.). Each run was performed five times and averaged. Error bars represent standard deviations. Graphs were plotted and fitted with the sigmoid curve fitting.

The nature of data set [3]: Solubility in aqueous media (observation). Type of data set: physicochemical.

T2 sequence (P05067 672-713 limits assumed): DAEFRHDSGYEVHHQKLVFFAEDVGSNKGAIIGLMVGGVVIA
T1 sequence (P05067 672-713 limits assumed): as above

Usually pKd stands for the negative decadic logarithm of the Kd, by convention in mol/L. One may read the IC50 as the concentration that gives 50% inhibition. Lower therefore signals greater potency. Take `COCCOCCOCCOC(=O)/C(C#N)=C/c1ccc(/C=C/c2ccc(N(C)C)cc2)cc1` [Cmpd 19, (E)-2-(2-(2-methoxyethoxyl)ethoxy)ethyl-cyano-3-(4-(4(dimethylamino)styryl)phenyl)acrylate]: the pKd in data set [1] is 5.85. For the same compound, in data set [2] (50% inhibition of IgG-Aβ interactions), 33.6 µM corresponded to half-maximal inhibition (IC50). In data set [2] (maximal percentage of IgG inhibited from binding to the fibrils), the “Maximum % inhibition (ELISA)” value is listed as 40%. Moreover, the “Solubility in aqueous media” value in data set [3] is “poor solubility in aqueous media”.
